{"source": "patent US11160871B2", "about": "“SSTR-targeted conjugates and particles and formulations thereof” (TARVEDA THERAPEUTICS, INC., priority 2015, dated 2021)", "key": {"hERG": {"target": "hERG (Homo sapiens, UniProt Q12809)", "sequence (Q12809 whole entry)": "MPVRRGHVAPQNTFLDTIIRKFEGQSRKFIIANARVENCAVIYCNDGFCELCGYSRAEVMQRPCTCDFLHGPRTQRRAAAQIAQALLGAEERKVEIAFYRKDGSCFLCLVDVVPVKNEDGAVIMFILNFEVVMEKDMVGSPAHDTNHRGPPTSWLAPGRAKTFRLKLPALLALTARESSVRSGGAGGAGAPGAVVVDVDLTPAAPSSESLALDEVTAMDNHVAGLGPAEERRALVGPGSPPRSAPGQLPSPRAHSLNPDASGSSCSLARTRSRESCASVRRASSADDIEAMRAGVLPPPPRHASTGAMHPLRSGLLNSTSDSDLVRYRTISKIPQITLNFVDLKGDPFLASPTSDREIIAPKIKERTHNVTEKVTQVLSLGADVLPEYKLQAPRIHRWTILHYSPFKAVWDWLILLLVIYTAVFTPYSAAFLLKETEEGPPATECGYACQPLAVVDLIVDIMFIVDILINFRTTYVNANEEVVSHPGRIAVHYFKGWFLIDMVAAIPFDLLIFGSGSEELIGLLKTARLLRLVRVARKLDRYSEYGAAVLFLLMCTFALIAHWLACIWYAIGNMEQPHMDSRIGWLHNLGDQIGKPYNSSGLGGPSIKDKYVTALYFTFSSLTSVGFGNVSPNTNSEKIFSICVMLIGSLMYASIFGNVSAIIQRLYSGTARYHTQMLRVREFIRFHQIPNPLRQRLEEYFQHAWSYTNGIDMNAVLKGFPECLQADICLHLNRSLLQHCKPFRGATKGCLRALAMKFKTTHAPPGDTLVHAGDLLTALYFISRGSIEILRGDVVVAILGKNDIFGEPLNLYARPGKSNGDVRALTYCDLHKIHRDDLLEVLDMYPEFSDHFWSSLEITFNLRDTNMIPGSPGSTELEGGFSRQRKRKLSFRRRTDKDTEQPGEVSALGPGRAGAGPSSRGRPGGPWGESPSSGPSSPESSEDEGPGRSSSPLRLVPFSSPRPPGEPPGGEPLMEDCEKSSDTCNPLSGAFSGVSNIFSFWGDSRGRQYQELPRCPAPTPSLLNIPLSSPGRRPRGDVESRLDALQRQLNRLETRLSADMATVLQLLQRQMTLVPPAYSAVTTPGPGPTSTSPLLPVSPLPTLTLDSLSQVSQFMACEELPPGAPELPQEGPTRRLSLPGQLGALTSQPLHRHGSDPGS", "experiment": "IonWorks Quattro hERG assay", "format": "cell-based", "conditions": "up to 10 uM"}, "SSTR2": {"target": "SSTR2 (Homo sapiens, UniProt P30874)", "sequence (P30874 whole entry)": "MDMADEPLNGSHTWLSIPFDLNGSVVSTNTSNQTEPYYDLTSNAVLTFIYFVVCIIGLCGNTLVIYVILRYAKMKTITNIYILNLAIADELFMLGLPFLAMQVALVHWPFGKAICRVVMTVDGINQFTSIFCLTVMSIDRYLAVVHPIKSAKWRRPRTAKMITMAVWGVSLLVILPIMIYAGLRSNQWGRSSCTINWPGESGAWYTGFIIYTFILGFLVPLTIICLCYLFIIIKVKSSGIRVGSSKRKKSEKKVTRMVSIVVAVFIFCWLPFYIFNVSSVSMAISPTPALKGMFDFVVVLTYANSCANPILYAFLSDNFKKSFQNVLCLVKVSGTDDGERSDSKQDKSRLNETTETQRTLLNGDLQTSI", "experiment": "Radioligand-receptor binding assay, [125I] labeled somatostatin", "parameters": "host or cells: CHO-K1", "description": "Two conjugates were assessed in an in vitro assay evaluating binding to the somatostatin receptor 2 (SSTR2). A radioligand-receptor binding assay was conducted at Eurofins Panlabs (Taiwan) to determine the affinity of conjugates described herein to the SSTR2. The assay measures binding of radiolabeled ligand, [^125I] labeled somatostatin, to human SSTR2 using membrane preparations from SSTR2 expressing CHO-K1 cells. Membranes were incubated with radiolabeled somatostatin (0.03 nM) in the presence of conjugate/compound starting at a dose of 10 uM using 6× serial dilutions to obtain a 10-pt curve. After a four hour incubation, membranes were filtered and washed 3× and counted to determine the remaining[^125 I] somatostatin bound to the receptor. IC50 values were determined by a non-linear, least squares regression analysis using MathIQ™ (ID Business Solutions Ltd., UK). The Ki values were calculated using the equation of Cheng and Prusoff (Cheng and Prusoff, Biochem. Pharmacol. 22:3099-3108, 1973) using the observed IC50 of the tested conjugate/compound, the concentration of radioligand employed in the assay, and the historical values for the KD of the ligand obtained at Eurofins."}, "H69 tumor": {"system": "H69 tumor", "experiment": "Histological staining of PH3 and CC3 in periphery, middle and core of H69 tumor", "format": "in vivo", "text": "Histological staining of PH3 and CC3 in periphery, middle and core of H69 tumor after Conjugate 57 treatment was shown in FIG. 22A and FIG. 22B. The periphery sample was taken from roughly the outside ⅓ of the tumor. The core sample was taken from roughly the center ⅓ of the tumor. The middle sample was taken from roughly ⅓ in between these locations. Using a 40× high-powered objective, positively stained cells were counted, one field per animal, 3 animals per treatment group. Each field was roughly 500 μm in size. In general, the PH3 staining was strongest on the periphery and decreased as you moved towards the center of the tumor."}}, "note": "Several values for one entry are separate records, joined by “and”; a condition that tells them apart may be missing. Equal entries are not always repeated.", "data": [{"compound": "COc1cc2cc(c1Cl)N(C)C(=O)C[C@H](OC(=O)[C@H](C)N(C)C(=O)CCSSC[C@H](NC(=O)[C@@H]1CSSC[C@H](NC(=O)[C@H](N)Cc3ccccc3)C(=O)N[C@@H](Cc3ccc(O)cc3)C(=O)N[C@H](Cc3c[nH]c4ccccc34)C(=O)N[C@@H](CCCCN)C(=O)N[C@@H]([C@@H](C)O)C(=O)N1)C(N)=O)[C@]1(C)O[C@H]1[C@H](C)[C@@H]1C[C@@](O)(NC(=O)O1)[C@H](OC)/C=C/C=C(\\C)C2", "note": "[Conjugate 57]", "values": [{"measurement": "inhibition of hERG", "setting": "hERG", "value": "no inhibition"}, {"measurement": "SSTR affinity of Conjugate 57 relative to Conjugate 120", "setting": "SSTR2", "value": "100,00 fold"}, {"measurement": "Ki", "setting": "SSTR2; Conjugate 57 Ki (nM), SSTR2", "value": "0.018 nM and 0.0177 nM"}, {"measurement": "Ki", "setting": "SSTR2; Ki (nm), SSTR affinity, Example 8", "value": 0.017, "unit": "nM"}, {"measurement": "Ki", "setting": "SSTR2; SSTR2 Ki (nM), membranes from SSTR2 expressing CHO-K1 cells", "value": 0.018, "unit": "nM"}, {"measurement": "Number of cells with positive CC3 stain, Core", "setting": "H69 tumor; 24 h", "value": 50.3}, {"measurement": "Number of cells with positive CC3 stain, Middle", "setting": "H69 tumor; 24 h", "value": 27.0}, {"measurement": "Number of cells with positive CC3 stain, Periphery", "setting": "H69 tumor; 24 h", "value": 9.7}, {"measurement": "Number of cells with positive PH3 stain, Core", "setting": "H69 tumor; 24 h", "value": 74.7}, {"measurement": "Number of cells with positive PH3 stain, Middle", "setting": "H69 tumor; 24 h", "value": 122.3}, {"measurement": "Number of cells with positive PH3 stain, Periphery", "setting": "H69 tumor; 24 h", "value": 158.3}, {"measurement": "Number of cells with positive CC3 stain, Core", "setting": "H69 tumor; 72 h", "value": 106.7}, {"measurement": "Number of cells with positive CC3 stain, Middle", "setting": "H69 tumor; 72 h", "value": 72.0}, {"measurement": "Number of cells with positive CC3 stain, Periphery", "setting": "H69 tumor; 72 h", "value": 41.0}, {"measurement": "Number of cells with positive PH3 stain, Core", "setting": "H69 tumor; 72 h", "value": 113.0}, {"measurement": "Number of cells with positive PH3 stain, Middle", "setting": "H69 tumor; 72 h", "value": 144.3}, {"measurement": "Number of cells with positive PH3 stain, Periphery", "setting": "H69 tumor; 72 h", "value": 215.7}]}]}
